Results reported in US20260109712A1, “RIFAMYCINS FOR NONTUBERCULOUS MYCOBACTERIA” (priority 2022, published 2026).
≈ marks a conversion by molar mass, not a printed value.

Columns and labels:
M. abscessus ATCC 19977 = assay: MIC assay in 96-well plate format, wild-type strain; type: cell-based, Mycobacterium abscessus; conditions: for MIC: M. abscessus ATCC 19977, 90% growth inhibition, read-out: WT Mab MIC; for MIC ratio: WT MIC/Δarr strain MIC; for fold loss of potency compared to 5a: MIC against M. abscessus; for MICWT: Table 10
Description: (§1) MIC determination was carried out in 96-well plate format as previously described.^[13-14] 96-well plates were initially set up with 100 μL of 7H9 per well. For each compound, a ten-point two-fold dilution series starting at twice the desired highest concentration was dispensed onto the 96-well plates using a Tecan D300e Digital Dispenser, with the DMSO concentration normalized to 2%. M. abscessus culture grown to mid-log phase (OD600=0.4-0.6) was diluted to OD600=0.1 (1×10^7 CFU/mL). […] Untreated control wells are included on each plate that contain bacteria suspension and 1% DMSO. Plates were sealed with parafilm, stored in boxes with wet paper towels and incubated at 37° C. with shaking (110 RPM). Plates were incubated for 3 days. To determine growth, OD600 was measured using a Tecan Infinite M200 plate reader on Day 0 and Day 3. Two biological replicates were performed. Clarithromycin was included in each experiment as a positive control.
(§2) For each well on the 96-well plate, bacterial growth was calculated by subtracting the Day 0 OD600 value from the Day 3 OD600 value. […] For compound-containing wells, percentage growth was calculated by dividing their growth values by the average drug-free bacterial growth for the compound series and multiplying by 100. For each compound series, we plotted percentage growth versus compound concentration.

Δarr M. abscessus = assay: MIC assay, isogenic arr-deleted strain; type: cell-based, Mycobacterium abscessus; conditions: for Δarr Mab MIC: arr-deleted strain, 90% growth inhibition; for MICΔorr: Table 10
Description: as §1, §2

Row | SMILES | MIC (M. abscessus ATCC 19977) | MIC ratio (M. abscessus ATCC 19977) | Δarr Mab MIC (Δarr M. abscessus) | fold loss of potency compared to 5a (M. abscessus ATCC 19977) | MICWT (M. abscessus ATCC 19977) | MICΔorr (Δarr M. abscessus)
1 | CO[C@H]1/C=C/O[C@@]2(C)Oc3c(C)c(O)c4c(c3C2=O)C2=NC3(CCN(CC(C)C)CC3)NC2=C(NC(=O)/C(C)=C/C=C/[C@H](C)[C@H](O)[C@@H](C)[C@@H](O)[C@@H](C)[C@H](OC(=O)c2ccccc2F)[C@@H]1C)C4=O [5e, 25-O-(2-fluorobenzoyl)-25-O-desacetyrifabutin] | 0.06 µM (≈ 0.0556 µg/mL) | 1.0 | 0.058 µM |  |  | 
2 | CO[C@H]1/C=C/O[C@@]2(C)Oc3c(C)c(O)c4c(c3C2=O)C2=NC3(CCN(CC(C)C)CC3)NC2=C(NC(=O)/C(C)=C/C=C/[C@H](C)[C@H](O)[C@@H](C)[C@@H](O)[C@@H](C)[C@H](OC(=O)c2ccccc2Cl)[C@@H]1C)C4=O [5f, 25-O-(2-chlorobenzoyl)-25-O-desacetyrifabutin] | 0.043 µM (≈ 0.0406 µg/mL) | 0.9 | 0.049 µM |  |  | 
3 | COc1ccccc1C(=O)O[C@H]1[C@H](C)[C@H](O)[C@H](C)[C@@H](O)[C@@H](C)/C=C/C=C(\C)C(=O)NC2=C3NC4(CCN(CC(C)C)CC4)N=C3c3c(c(O)c(C)c4c3C(=O)[C@@](C)(O/C=C/[C@H](OC)[C@H]1C)O4)C2=O [5g, 25-O-(2-methoxybenzoyl)-25-O-desacetyrifabutin] | 0.03 µM (≈ 0.0282 µg/mL) | 1.0 | 0.03 µM |  |  | 
4 | CO[C@H]1/C=C/O[C@@]2(C)Oc3c(C)c(O)c4c(c3C2=O)C2=NC3(CCN(CC(C)C)CC3)NC2=C(NC(=O)/C(C)=C/C=C/[C@H](C)[C@H](O)[C@@H](C)[C@@H](O)[C@@H](C)[C@H](OC(=O)c2ccccc2C(F)(F)F)[C@@H]1C)C4=O [5h, 25-O-(2-trifluoromethylbenzoyl)-25-O-desacetyrifabutin] | 0.1 µM (≈ 0.0977 µg/mL) | 0.8 | 0.12 µM | 2 fold |  | 
5 | CO[C@H]1/C=C/O[C@@]2(C)Oc3c(C)c(O)c4c(c3C2=O)C2=NC3(CCN(CC(C)C)CC3)NC2=C(NC(=O)/C(C)=C/C=C/[C@H](C)[C@H](O)[C@@H](C)[C@@H](O)[C@@H](C)[C@H](OC(=O)c2ccccc2-c2ccccc2)[C@@H]1C)C4=O [5i, 25-O-(2-phenylbenzoyl)-25-O-desacetyrifabutin] | 0.26 µM (≈ 0.256 µg/mL) | 1.8 | 0.14 µM | 5 fold |  | 
6 | CCC(CC)C(=O)O[C@H]1[C@H](C)[C@H](O)[C@H](C)[C@@H](O)[C@@H](C)/C=C/C=C(\C)C(=O)NC2=C3NC4(CCN(CC(C)C)CC4)N=C3c3c(c(O)c(C)c4c3C(=O)[C@@](C)(O/C=C/[C@H](OC)[C@H]1C)O4)C2=O [5l] | 1.15 µM (≈ 1.04 µg/mL) | 23.5 | 0.049 µM |  |  | 
7 | CO[C@H]1/C=C/O[C@@]2(C)Oc3c(C)c(O)c4c(c3C2=O)C2=NC3(CCN(CC(C)C)CC3)NC2=C(NC(=O)/C(C)=C/C=C/[C@H](C)[C@H](O)[C@@H](C)[C@@H](O)[C@@H](C)[C@H](OC(=O)c2nccs2)[C@@H]1C)C4=O [5o, 25-O-(2-thiazolecarbonyl)-25-O-desacetyrifabutin] | 0.017 µM (≈ 0.0156 µg/mL) | 1.0 | 0.017 µM |  |  | 
8 | CO[C@H]1/C=C/O[C@@]2(C)Oc3c(C)c(O)c4c(c3C2=O)C2=NC3(CCN(CC(C)C)CC3)NC2=C(NC(=O)/C(C)=C/C=C/[C@H](C)[C@H](O)[C@@H](C)[C@@H](O)[C@@H](C)[C@H](OC(=O)c2cccc(C)c2)[C@@H]1C)C4=O [UMN8] |  |  |  |  | 0.075 µM | 0.065 µM
9 | CO[C@H]1/C=C/O[C@@]2(C)Oc3c(C)c(O)c4c(c3C2=O)C2=NC3(CCN(CC(C)C)CC3)NC2=C(NC(=O)/C(C)=C/C=C/[C@H](C)[C@H](O)[C@@H](C)[C@@H](O)[C@@H](C)[C@H](OC(=O)c2ccc(C)cc2)[C@@H]1C)C4=O [UMN9] |  |  |  |  | 0.2 µM | 0.11 µM
10 | CCC(CC)C(=O)O[C@H]1[C@H](C)[C@H](O)[C@H](C)[C@@H](O)[C@@H](C)/C=C/C=C(\C)C(=O)NC2=C3NC4(CCN(CC(C)C)CC4)N=C3c3c(c(O)c(C)c4c3C(=O)[C@@](C)(O/C=C/[C@H](OC)[C@H]1C)O4)C2=O [UMN17] |  |  |  |  | 1.15 µM | 0.049 µM
11 | CCC(C)C(=O)O[C@H]1[C@H](C)[C@H](O)[C@H](C)[C@@H](O)[C@@H](C)/C=C/C=C(\C)C(=O)NC2=C3NC4(CCN(CC(C)C)CC4)N=C3c3c(c(O)c(C)c4c3C(=O)[C@@](C)(O/C=C/[C@H](OC)[C@H]1C)O4)C2=O (stereo partly shown) [UMN21] |  |  |  |  | 1.1 µM | 0.028 µM
12 | CO[C@H]1/C=C/O[C@@]2(C)Oc3c(C)c(O)c4c(c3C2=O)C2=NC3(CCN(CC(C)C)CC3)NC2=C(NC(=O)/C(C)=C/C=C/[C@H](C)[C@H](O)[C@@H](C)[C@@H](O)[C@@H](C)[C@H](OC(=O)c2ccccc2-c2ccccc2)[C@@H]1C)C4=O [UMN25] |  |  |  |  | 0.26 µM | 0.14 µM
13 | CO[C@H]1/C=C/O[C@@]2(C)Oc3c(C)c(O)c4c(c3C2=O)C2=NC3(CCN(CC(C)C)CC3)NC2=C(NC(=O)/C(C)=C/C=C/[C@H](C)[C@H](O)[C@@H](C)[C@@H](O)[C@@H](C)[C@H](OC(=O)c2ccccc2C(F)(F)F)[C@@H]1C)C4=O [UMN30] |  |  |  |  | 0.1 µM | 0.12 µM
14 | CO[C@H]1/C=C/O[C@@]2(C)Oc3c(C)c(O)c4c(c3C2=O)C2=NC3(CCN(CC(C)C)CC3)NC2=C(NC(=O)/C(C)=C/C=C/[C@H](C)[C@H](O)[C@@H](C)[C@@H](O)[C@@H](C)[C@H](OC(=O)Nc2cccc(-c3ccccc3)c2)[C@@H]1C)C4=O [UMN31] |  |  |  |  | 0.27 µM | 0.43 µM
15 | CO[C@H]1/C=C/O[C@@]2(C)Oc3c(C)c(O)c4c(c3C2=O)C2=NC3(CCN(CC(C)C)CC3)NC2=C(NC(=O)/C(C)=C/C=C/[C@H](C)[C@H](O)[C@@H](C)[C@@H](O)[C@@H](C)[C@H](OC(=O)Nc2ccc(-c3ccccc3)cc2)[C@@H]1C)C4=O [UMN38] |  |  |  |  | 0.2 µM | 0.43 µM
16 | CO[C@H]1/C=C/O[C@@]2(C)Oc3c(C)c(O)c4c(c3C2=O)C2=NC3(CCN(CC(C)C)CC3)NC2=C(NC(=O)/C(C)=C/C=C/[C@H](C)[C@H](O)[C@@H](C)[C@@H](O)[C@@H](C)[C@H](OC(=O)NCc2cc(-c3cccc(-c5ccccc5)c3)no2)[C@@H]1C)C4=O [UMN41] |  |  |  |  | 0.25 µM | 0.34 µM
17 | CO[C@H]1/C=C/O[C@@]2(C)Oc3c(C)c(O)c4c(c3C2=O)C2=NC3(CCN(CC(C)C)CC3)NC2=C(NC(=O)/C(C)=C/C=C/[C@H](C)[C@H](O)[C@@H](C)[C@@H](O)[C@@H](C)[C@H](OC(=O)N2CCN(CC(F)(F)F)CC2)[C@@H]1C)C4=O [UMN54] |  |  |  |  | 0.13 µM | 0.029 µM
18 | CO[C@H]1/C=C/O[C@@]2(C)Oc3c(C)c(O)c4c(c3C2=O)C2=NC3(CCN(CC(C)C)CC3)NC2=C(NC(=O)/C(C)=C/C=C/[C@H](C)[C@H](O)[C@@H](C)[C@@H](O)[C@@H](C)[C@H](OC(=O)N2CCN(CCO)CC2)[C@@H]1C)C4=O [UMN55] |  |  |  |  | 0.28 µM | 0.13 µM
19 | CO[C@H]1/C=C/O[C@@]2(C)Oc3c(C)c(O)c4c(c3C2=O)C2=NC3(CCN(CC(C)C)CC3)NC2=C(NC(=O)/C(C)=C/C=C/[C@H](C)[C@H](O)[C@@H](C)[C@@H](O)[C@@H](C)[C@H](OC(=O)Nc2nc(-c3ccccc3)cs2)[C@@H]1C)C4=O [UMN57] |  |  |  |  | 0.15 µM | 0.25 µM
20 | CO[C@H]1/C=C/O[C@@]2(C)Oc3c(C)c(O)c4c(c3C2=O)C2=NC3(CCN(CC(C)C)CC3)NC2=C(NC(=O)/C(C)=C/C=C/[C@H](C)[C@H](O)[C@@H](C)[C@@H](O)[C@@H](C)[C@H](OC(=O)N2Cc3ccccc3C2)[C@@H]1C)C4=O [UMN65] |  |  |  |  | 0.11 µM | 0.052 µM
21 | CO[C@H]1/C=C/O[C@@]2(C)Oc3c(C)c(O)c4c(c3C2=O)C2=NC3(CCN(CC(C)C)CC3)NC2=C(NC(=O)/C(C)=C/C=C/[C@H](C)[C@H](O)[C@@H](C)[C@@H](O)[C@@H](C)[C@H](OC(=O)N2CCN(C(C)C)CC2)[C@@H]1C)C4=O [UMN66] |  |  |  |  | 0.17 µM | 0.056 µM
22 | CO[C@H]1/C=C/O[C@@]2(C)Oc3c(C)c(O)c4c(c3C2=O)C2=NC3(CCN(CC(C)C)CC3)NC2=C(NC(=O)/C(C)=C/C=C/[C@H](C)[C@H](O)[C@@H](C)[C@@H](O)[C@@H](C)[C@H](OC(=O)N2CCC(N(C)C)CC2)[C@@H]1C)C4=O [UMN74] |  |  |  |  | 0.12 µM | 0.13 µM
23 | CO[C@H]1/C=C/O[C@@]2(C)Oc3c(C)c(O)c4c(c3C2=O)C2=NC3(CCN(CC(C)C)CC3)NC2=C(NC(=O)/C(C)=C/C=C/[C@H](C)[C@H](O)[C@@H](C)[C@@H](O)[C@@H](C)[C@H](OC(=O)N2CCC(C)(C)C2)[C@@H]1C)C4=O [UMN75] |  |  |  |  | 0.13 µM | 0.035 µM
